Each structure is given as a SMILES string.

For data set [1] the following is noted: as measured at room temperature; cited from earlier work.
Data set [2] in a line: Saturation concentration (solubility) of CBD in PIB adhesive, CBD added until turbidity. It counts as physicochemical. The source says:
Regarding peel strength of adhesives, the inventor used judgment and estimation for preparing the patch with 26% of tackifying resin. Escorez 5400 has been used in many adhesives but not in PIB. […] The inventor estimated the peel strength of the formulation with tackifier and without tackifier, by peeling them both from the inventor's own arm skin. To obtain saturation concentration of CBD in the PIB adhesive with 26% of tackifying resin Escorez 5400 the inventor needed to add more CBD to reach turbidity. […] It was the same as the flux from PIB saturated with CBD without tackifier.
This is expected to result in thus greater flux of CBD to a patient, where the dermal patch is in contact with the skin of a patient.

Data set [3] in a line: Transdermal flux / transdermal delivery from PIB adhesive patch (Franz diffusion cell).
Description: The inventor used a Franz cell for assessing release kinetics, as described below. For testing release kinetics from transdermal monolithic patches, where a semi-solid adhesive matrix is used, the Franz cell has the following components, from top to bottom: (1) Stopper used to seal top of donor compartment; (2) Donor compartment; (3) Patch situated at very bottom of donor compartment, with adhesive side of patch attached to human cadaver skin; (4) Human cadaver skin located immediately under the patch; (5) Receiving compartment, located immediately below the skin. Receiving compartment is filled with ethanol/water solution; (6) Magnetic stirrer located at bottom of receiving compartment.
After receiving the donor human skin, the inventor prepared the skin for testing in a Franz cell by thawing the skin to room temperature, washing in distilled water and cutting in round pieces to fit the diameter of the Franz cell opening. Before placing the patch on the human skin, the inventor dried the skin with a paper tissue. The skin with the attached patch was placed between the Upper Donor Chamber and the Lower Receiving Chamber and clamped tightly. […] The test lasts typically 24 hrs and aliquots of 150 L were withdrawn from the receiving chamber after different periods of time and analyzed via HPLC. […]
The conditions of data set [4]: cited from earlier work.

Regarding `O=S(=O)(O)CCNC1CCCCC1` [CHES], the pKa in data set [1] is given as 9.5.

Consider `C=C(C)[C@@H]1CCC(C)=C[C@H]1c1c(O)cc(CCCCC)cc1O` [CBD, cannabidiol], for which the “concentration of the saturation of CBD in PIB adhesive” value in data set [2] (PIB adhesive with 26% of tackifying resin Escorez 5400, CBD added to reach turbidity) was “about 18%”. Also, in data set [2] (with Escorez 5400 tackifier versus without), the “solubility of CBD in PIB adhesive, effect of Escorez 5400 tackifier” value is “increased”. For the same compound, the “transdermal flux of CBD” value in data set [3] (PIB adhesive with 26% Escorez 5400 saturated with CBD, versus PIB saturated with CBD without tackifier) is listed as “did not increase”.

In the case of `O=S(=O)(O)CCN1CCN(CCS(=O)(=O)O)CC1` [PIPES], in data set [1], the pKa is reported as 6.8.

Take `OB(O)O` [boric acid]: the pKa in data set [1] is 9.2.

Consider `COc1cc(CNC(=O)CCCC/C=C/C(C)C)ccc1O` [Capsaicin, trans-8-methyl-N-vanillyl-6-nonenamide], for which the water solubility entry in data set [4] is recorded as “not water-soluble”.

Take `CCCCCCCC/C=C\CCCCCCCC(=O)O` [oleic acid]: the “transdermal delivery from PIB adhesive with enhancer” value in data set [3] (enhancer at 3% in PIB adhesive, versus PIB without enhancer) was “double”.

One may read the pKa as the negative logarithm of the acid dissociation constant.

(Values after US20240075182A1, “ENHANCED DERMAL PATCH FOR TREATING MENSTRUAL PAIN” (REMY BIOSCIENCES, priority 2021, published 2024).)
